{"source": "patent US20250147039A1", "about": "“Compounds for complexation of rare earth elements and/or s-, p-, d- block metals, their coordination compounds, peptide conjugates, method of their preparation and use thereof” (USTAV ORGANICKE CHEMIE A BIOCHEMIE AV CR V.V.I., priority 2021, published 2025)", "key": {"[1]": {"assay": "Formation of 1,5-cz-[M(Lig)] from Lig and M^III ions (metal dependent click-zip) (Charts 4, 5)", "format": "physicochemical", "details": "MOPS/NaOH buffer pH 7.0; for conversion to 1,5-cz-[M(Lig)], Sc^III / conversion to 1,5-cz-[M(Lig)], Y^III: TD728, TD827 in 50% i-PrOH; for conversion to 1,5-cz-[M(Lig)], Y^III: TD714 sum of two diastereoisomers"}, "[2]": {"assay": "Formation of 1,5-cz-[Ln(Lig)] from Lig and Ln^III ions (metal dependent click-zip), MOPS/NaOH buffer pH 7.0, analytical HPLC (Charts 1, 2)", "details": "MOPS/NaOH buffer pH 7.0"}}}
{"molecule": "C#Cc1cccc(CN2CCN(CC(=O)O)CCN(Cc3cc(C(=O)OC(C)C)cc(CN=[N+]=[N-])n3)CCN(CC(=O)O)CC2)n1", "note": "[TD1148]", "values": [{"measurement": "conversion to 1,5-cz-[Ln(Lig)] with hydrolysed group in the side chain, Sc^III", "setting": "[1]; 1 week at 80° C.", "result": 11, "unit": "%"}, {"measurement": "conversion to 1,5-cz-[Ln(Lig)] with hydrolysed group in the side chain, Y^III", "setting": "[1]; 1 week at 80° C.", "result": 94, "unit": "%"}, {"measurement": "conversion to 1,5-cz-[M(Lig)], Sc^III", "setting": "[1]; 1 week at 80° C.", "result": 0, "unit": "%"}, {"measurement": "conversion to 1,5-cz-[M(Lig)], Y^III", "setting": "[1]; 1 week at 80° C.", "result": 0, "unit": "%"}, {"measurement": "conversion to 1,5-cz-[Ln(Lig)] with hydrolysed group in the side chain, Sc^III", "setting": "[1]; 1 hour at 80° C.", "result": 0, "unit": "%"}, {"measurement": "conversion to 1,5-cz-[Ln(Lig)] with hydrolysed group in the side chain, Y^III", "setting": "[1]; 1 hour at 80° C.", "result": 3, "unit": "%"}, {"measurement": "conversion to 1,5-cz-[M(Lig)], Sc^III", "setting": "[1]; 1 hour at 80° C.", "result": 0, "unit": "%"}, {"measurement": "conversion to 1,5-cz-[M(Lig)], Y^III", "setting": "[1]; 1 hour at 80° C.", "result": 18, "unit": "%"}, {"measurement": "conversion to 1,5-cz-[Ln(Lig)] with hydrolysed group in the side chain, Ce^III", "setting": "[2]; after 1 week at 80° C.", "result": 27, "unit": "%"}, {"measurement": "conversion to 1,5-cz-[Ln(Lig)], Ce^III", "setting": "[2]; after 1 week at 80° C.", "result": 0, "unit": "%"}, {"measurement": "conversion to 1,5-cz-[Ln(Lig)] with hydrolysed group in the side chain, Ce^III", "setting": "[2]; after 1 hour at 80° C.", "result": 0, "unit": "%"}, {"measurement": "conversion to 1,5-cz-[Ln(Lig)], Ce^III", "setting": "[2]; after 1 hour at 80° C.", "result": 0, "unit": "%"}, {"measurement": "conversion to 1,5-cz-[Ln(Lig)] with hydrolysed group in the side chain, Dy^III", "setting": "[2]; after 1 week at 80° C.", "result": 93, "unit": "%"}, {"measurement": "conversion to 1,5-cz-[Ln(Lig)], Dy^III", "setting": "[2]; after 1 week at 80° C.", "result": 0, "unit": "%"}, {"measurement": "conversion to 1,5-cz-[Ln(Lig)] with hydrolysed group in the side chain, Dy^III", "setting": "[2]; after 1 hour at 80° C.", "result": 2, "unit": "%"}, {"measurement": "conversion to 1,5-cz-[Ln(Lig)], Dy^III", "setting": "[2]; after 1 hour at 80° C.", "result": 14, "unit": "%"}, {"measurement": "conversion to 1,5-cz-[Ln(Lig)] with hydrolysed group in the side chain, Er^III", "setting": "[2]; after 1 week at 80° C.", "result": 94, "unit": "%"}, {"measurement": "conversion to 1,5-cz-[Ln(Lig)], Er^III", "setting": "[2]; after 1 week at 80° C.", "result": 0, "unit": "%"}, {"measurement": "conversion to 1,5-cz-[Ln(Lig)] with hydrolysed group in the side chain, Er^III", "setting": "[2]; after 1 hour at 80° C.", "result": 4, "unit": "%"}, {"measurement": "conversion to 1,5-cz-[Ln(Lig)], Er^III", "setting": "[2]; after 1 hour at 80° C.", "result": 33, "unit": "%"}, {"measurement": "conversion to 1,5-cz-[Ln(Lig)] with hydrolysed group in the side chain, Eu^III", "setting": "[2]; after 1 week at 80° C.", "result": 90, "unit": "%"}, {"measurement": "conversion to 1,5-cz-[Ln(Lig)], Eu^III", "setting": "[2]; after 1 week at 80° C.", "result": 0, "unit": "%"}, {"measurement": "conversion to 1,5-cz-[Ln(Lig)] with hydrolysed group in the side chain, Eu^III", "setting": "[2]; after 1 hour at 80° C.", "result": 0, "unit": "%"}, {"measurement": "conversion to 1,5-cz-[Ln(Lig)], Eu^III", "setting": "[2]; after 1 hour at 80° C.", "result": 4, "unit": "%"}, {"measurement": "conversion to 1,5-cz-[Ln(Lig)] with hydrolysed group in the side chain, Gd^III", "setting": "[2]; after 1 week at 80° C.", "result": 90, "unit": "%"}, {"measurement": "conversion to 1,5-cz-[Ln(Lig)], Gd^III", "setting": "[2]; after 1 week at 80° C.", "result": 0, "unit": "%"}, {"measurement": "conversion to 1,5-cz-[Ln(Lig)] with hydrolysed group in the side chain, Gd^III", "setting": "[2]; after 1 hour at 80° C.", "result": 1, "unit": "%"}, {"measurement": "conversion to 1,5-cz-[Ln(Lig)], Gd^III", "setting": "[2]; after 1 hour at 80° C.", "result": 5, "unit": "%"}, {"measurement": "conversion to 1,5-cz-[Ln(Lig)] with hydrolysed group in the side chain, Ho^III", "setting": "[2]; after 1 week at 80° C.", "result": 94, "unit": "%"}, {"measurement": "conversion to 1,5-cz-[Ln(Lig)], Ho^III", "setting": "[2]; after 1 week at 80° C.", "result": 0, "unit": "%"}, {"measurement": "conversion to 1,5-cz-[Ln(Lig)] with hydrolysed group in the side chain, Ho^III", "setting": "[2]; after 1 hour at 80° C.", "result": 3, "unit": "%"}, {"measurement": "conversion to 1,5-cz-[Ln(Lig)], Ho^III", "setting": "[2]; after 1 hour at 80° C.", "result": 21, "unit": "%"}, {"measurement": "conversion to 1,5-cz-[Ln(Lig)] with hydrolysed group in the side chain, La^III", "setting": "[2]; after 1 week at 80° C.", "result": 36, "unit": "%"}, {"measurement": "conversion to 1,5-cz-[Ln(Lig)], La^III", "setting": "[2]; after 1 week at 80° C.", "result": 0, "unit": "%"}, {"measurement": "conversion to 1,5-cz-[Ln(Lig)] with hydrolysed group in the side chain, La^III", "setting": "[2]; after 1 hour at 80° C.", "result": 0, "unit": "%"}, {"measurement": "conversion to 1,5-cz-[Ln(Lig)], La^III", "setting": "[2]; after 1 hour at 80° C.", "result": 0, "unit": "%"}, {"measurement": "conversion to 1,5-cz-[Ln(Lig)] with hydrolysed group in the side chain, Lu^III", "setting": "[2]; after 1 week at 80° C.", "result": 96, "unit": "%"}, {"measurement": "conversion to 1,5-cz-[Ln(Lig)], Lu^III", "setting": "[2]; after 1 week at 80° C.", "result": 0, "unit": "%"}, {"measurement": "conversion to 1,5-cz-[Ln(Lig)] with hydrolysed group in the side chain, Lu^III", "setting": "[2]; after 1 hour at 80° C.", "result": 6, "unit": "%"}, {"measurement": "conversion to 1,5-cz-[Ln(Lig)], Lu^III", "setting": "[2]; after 1 hour at 80° C.", "result": 57, "unit": "%"}, {"measurement": "conversion to 1,5-cz-[Ln(Lig)] with hydrolysed group in the side chain, Nd^III", "setting": "[2]; after 1 week at 80° C.", "result": 71, "unit": "%"}, {"measurement": "conversion to 1,5-cz-[Ln(Lig)], Nd^III", "setting": "[2]; after 1 week at 80° C.", "result": 0, "unit": "%"}, {"measurement": "conversion to 1,5-cz-[Ln(Lig)] with hydrolysed group in the side chain, Nd^III", "setting": "[2]; after 1 hour at 80° C.", "result": 0, "unit": "%"}, {"measurement": "conversion to 1,5-cz-[Ln(Lig)], Nd^III", "setting": "[2]; after 1 hour at 80° C.", "result": 1, "unit": "%"}, {"measurement": "conversion to 1,5-cz-[Ln(Lig)] with hydrolysed group in the side chain, Pr^III", "setting": "[2]; after 1 week at 80° C.", "result": 61, "unit": "%"}, {"measurement": "conversion to 1,5-cz-[Ln(Lig)], Pr^III", "setting": "[2]; after 1 week at 80° C.", "result": 0, "unit": "%"}, {"measurement": "conversion to 1,5-cz-[Ln(Lig)] with hydrolysed group in the side chain, Pr^III", "setting": "[2]; after 1 hour at 80° C.", "result": 0, "unit": "%"}, {"measurement": "conversion to 1,5-cz-[Ln(Lig)], Pr^III", "setting": "[2]; after 1 hour at 80° C.", "result": 0, "unit": "%"}, {"measurement": "conversion to 1,5-cz-[Ln(Lig)] with hydrolysed group in the side chain, Sm^III", "setting": "[2]; after 1 week at 80° C.", "result": 86, "unit": "%"}, {"measurement": "conversion to 1,5-cz-[Ln(Lig)], Sm^III", "setting": "[2]; after 1 week at 80° C.", "result": 0, "unit": "%"}, {"measurement": "conversion to 1,5-cz-[Ln(Lig)] with hydrolysed group in the side chain, Sm^III", "setting": "[2]; after 1 hour at 80° C.", "result": 0, "unit": "%"}, {"measurement": "conversion to 1,5-cz-[Ln(Lig)], Sm^III", "setting": "[2]; after 1 hour at 80° C.", "result": 3, "unit": "%"}, {"measurement": "conversion to 1,5-cz-[Ln(Lig)] with hydrolysed group in the side chain, Tb^III", "setting": "[2]; after 1 week at 80° C.", "result": 91, "unit": "%"}, {"measurement": "conversion to 1,5-cz-[Ln(Lig)], Tb^III", "setting": "[2]; after 1 week at 80° C.", "result": 0, "unit": "%"}, {"measurement": "conversion to 1,5-cz-[Ln(Lig)] with hydrolysed group in the side chain, Tb^III", "setting": "[2]; after 1 hour at 80° C.", "result": 1, "unit": "%"}, {"measurement": "conversion to 1,5-cz-[Ln(Lig)], Tb^III", "setting": "[2]; after 1 hour at 80° C.", "result": 9, "unit": "%"}, {"measurement": "conversion to 1,5-cz-[Ln(Lig)] with hydrolysed group in the side chain, Tm^III", "setting": "[2]; after 1 week at 80° C.", "result": 95, "unit": "%"}, {"measurement": "conversion to 1,5-cz-[Ln(Lig)], Tm^III", "setting": "[2]; after 1 week at 80° C.", "result": 0, "unit": "%"}, {"measurement": "conversion to 1,5-cz-[Ln(Lig)] with hydrolysed group in the side chain, Tm^III", "setting": "[2]; after 1 hour at 80° C.", "result": 5, "unit": "%"}, {"measurement": "conversion to 1,5-cz-[Ln(Lig)], Tm^III", "setting": "[2]; after 1 hour at 80° C.", "result": 45, "unit": "%"}, {"measurement": "conversion to 1,5-cz-[Ln(Lig)] with hydrolysed group in the side chain, Yb^III", "setting": "[2]; after 1 week at 80° C.", "result": 95, "unit": "%"}, {"measurement": "conversion to 1,5-cz-[Ln(Lig)], Yb^III", "setting": "[2]; after 1 week at 80° C.", "result": 0, "unit": "%"}, {"measurement": "conversion to 1,5-cz-[Ln(Lig)] with hydrolysed group in the side chain, Yb^III", "setting": "[2]; after 1 hour at 80° C.", "result": 5, "unit": "%"}, {"measurement": "conversion to 1,5-cz-[Ln(Lig)], Yb^III", "setting": "[2]; after 1 hour at 80° C.", "result": 54, "unit": "%"}]}
